Laboratory results taken from patent US20130231366A1, “Use of a Novel Alpha-7 Nachr Antagonist to Suppress Pathogenic Signal Transduction in Cancer and Aids” (UNIVERSITY OF KENTUCKY RESEARCH FOUNDATION, priority 2008, published 2013).
Read-outs that look alike come from different tables or passages of the source.

Legend:
Format in all cases: cell-based
rat α3β4 nAChRs = target: T1, rat α3β4 nAChRs (Rattus norvegicus, UniProt P04757+P12392); assay: Voltage-clamp recording in Xenopus oocytes expressing rat α3β4 nAChRs; conditions: for recovery of responses to ACh alone after co-application: 5 min washout
T1 construct: expressed in transfected cells; host or cells: Xenopus laevis oocytes injected with subunit cRNAs
T1 sequence (P04757 26-499): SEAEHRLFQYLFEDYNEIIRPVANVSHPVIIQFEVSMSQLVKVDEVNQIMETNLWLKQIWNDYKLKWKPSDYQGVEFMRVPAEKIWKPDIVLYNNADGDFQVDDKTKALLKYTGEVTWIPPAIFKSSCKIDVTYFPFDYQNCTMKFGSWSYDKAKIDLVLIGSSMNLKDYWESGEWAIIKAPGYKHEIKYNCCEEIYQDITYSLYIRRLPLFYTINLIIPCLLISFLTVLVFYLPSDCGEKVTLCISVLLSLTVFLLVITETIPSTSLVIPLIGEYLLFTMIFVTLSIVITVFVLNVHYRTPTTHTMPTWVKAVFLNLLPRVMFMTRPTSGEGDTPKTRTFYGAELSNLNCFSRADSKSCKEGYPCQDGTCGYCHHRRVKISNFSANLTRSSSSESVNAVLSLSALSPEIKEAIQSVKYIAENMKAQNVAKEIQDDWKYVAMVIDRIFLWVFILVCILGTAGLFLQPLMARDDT
T1 sequence (P12392 21-495): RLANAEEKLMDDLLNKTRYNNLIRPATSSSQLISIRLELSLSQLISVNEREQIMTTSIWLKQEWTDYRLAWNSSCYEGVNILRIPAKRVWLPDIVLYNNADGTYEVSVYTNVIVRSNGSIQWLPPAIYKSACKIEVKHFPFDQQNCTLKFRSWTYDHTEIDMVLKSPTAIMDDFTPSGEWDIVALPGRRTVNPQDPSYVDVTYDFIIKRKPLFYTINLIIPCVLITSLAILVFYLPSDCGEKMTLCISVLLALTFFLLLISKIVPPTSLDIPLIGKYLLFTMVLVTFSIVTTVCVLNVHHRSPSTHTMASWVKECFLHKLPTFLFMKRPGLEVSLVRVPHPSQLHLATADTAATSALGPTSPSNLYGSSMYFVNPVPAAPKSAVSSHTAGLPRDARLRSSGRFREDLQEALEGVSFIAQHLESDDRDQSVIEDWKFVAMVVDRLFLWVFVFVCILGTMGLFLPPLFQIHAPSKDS
Protocol: (§1) For recombinant nAChR studies, mature (>9 cm) female Xenopus laevis African frogs (Nasco, Ft. Atkinson, Wis.) were used as a source of oocytes. Prior to surgery, frogs were anesthetized by placing the animal in a 1.5 g/l solution of MS222 (3-aminobenzoic acid ethyl ester) for 30 min. Oocytes were removed from an incision made in the abdomen. All procedures involving frogs were approved by the University of Florida Institutional Animal Care and Use Committee (IACUC).
(§2) Stage 5 oocytes were then isolated and injected with 50 n1 (5-20 ng) each of the appropriate subunit cRNAs. The rat neuronal nAChR clones were obtained from Dr. Jim Boulter (UCLA, Los Angeles, Calif.). After linearization and purification of cloned cDNAs, RNA transcripts were prepared in vitro using the appropriate mMessage mMachine kit from Ambion (Austin, Tex.).
(§3) Experiments were conducted using OpusXpress 6000A (Molecular Devices, Union City Calif.). […] Net charge values were used to report inhibitory effects. […] Means and standard errors (SEM) were calculated from the normalized responses of at least four oocytes for each experimental concentration. Concentration-response data were fit to the Hill equation assuming negative Hill slopes.

[1] = target: T2, native α7 receptors on rat hippocampal interneurons (Rattus norvegicus, UniProt Q05941); assay: Patch-clamp recording of ACh-evoked responses of hippocampal interneurons in brain slices; conditions: 1 μM bath-applied; for reduction of ACh-evoked responses: 1 mM ACh
T2 construct: Native α7 Receptors on Rat Hippocampal Interneurons; from tissue; host or cells: interneurons of CA1 stratum radiatum in fresh rat brain slices
T2 sequence (Q05941 23-502): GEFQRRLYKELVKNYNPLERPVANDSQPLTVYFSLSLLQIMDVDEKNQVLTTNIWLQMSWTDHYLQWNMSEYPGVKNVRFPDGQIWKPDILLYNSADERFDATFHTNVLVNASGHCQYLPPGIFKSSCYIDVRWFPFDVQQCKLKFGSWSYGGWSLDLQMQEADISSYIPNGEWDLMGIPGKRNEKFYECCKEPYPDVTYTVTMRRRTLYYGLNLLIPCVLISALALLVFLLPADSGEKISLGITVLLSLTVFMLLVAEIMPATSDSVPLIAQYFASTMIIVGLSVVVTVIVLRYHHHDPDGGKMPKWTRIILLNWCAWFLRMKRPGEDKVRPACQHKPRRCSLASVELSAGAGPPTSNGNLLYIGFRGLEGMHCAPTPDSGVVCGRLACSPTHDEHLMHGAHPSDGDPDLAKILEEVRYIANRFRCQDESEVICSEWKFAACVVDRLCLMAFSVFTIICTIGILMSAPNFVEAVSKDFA
Protocol: (§4) All procedures involving rats were approved by the University of Florida IACUC and were in accord with the NIH Guide for the Care and Use of Laboratory Animals. Male Sprague Dawley rats (post-natal day 12-25) were anesthetized with Halothane (Halocarbon Laboratories, River Edge N.J.) and swiftly decapitated. Transverse ([…]) whole brain slices were prepared using a vibratome (Pelco, Redding, Calif.) and then placed in a high Mg^2+/low Ca^2+ ice-cold artificial cerebral spinal fluid (ACSF) containing (in mM) 124 NaCl, 2.5 KCl, 1.2 NaH2PO4, 2.5 MgSO4, 10 D-glucose, 1 CaCl2, and 25.9 NaHCO3, saturated with 95% O2-5% CO2. Slices were incubated at 30° C. for 30 minutes and then left at room temperature until they were transferred to a submersion chamber (Warner Instruments, Hamden, Conn.) for recording. During experiments, slices were perfused at a rate of 2 ml/min with normal ACSF containing (in mM) 126 NaCl, 3 KCl, 1.2 NaH2PO4, 1.5 MgSO4, 11 D-glucose, 2.4 CaCl2, 25.9 NaHCO3, and 0.004 atropine sulfate, saturated with 95% 02-5% CO2 at 30° C. Cells were visualized with infrared differential interference contrast microscopy using a Nikon E600FN microscope. Patch-clamp recording pipettes were pulled from borosilicate glass (Sutter Instruments, Novato, Calif.) using a Flaming/Brown micropipette puller (P-97; Sutter Instruments, Novato, Calif.). Recording pipettes were filled with an internal solution of (in mM) 125K-gluconate, 1 KCl, 0.1 CaCl2, 2 MgCl2, 1 EGTA, 2 MgATP, 0.3 Na3GTP, and 10 HEPES (pH adjusted to 7.3 with KOH). The resistance of the recording pipette when filled with the internal solution was 3-5 MΩ. Cells were held at −70 mV, and a −10 in V/10 ms test pulse was used to determine access resistance, input resistance, and whole-cell capacitance. Cells with access resistances >60 MΩ or those requiring holding currents >200 pA were not included in the final analyses. Signals were digitized using an Axon Digidata1322A and sampled at 20 kHz on a Dell computer using Clampex version 8 or 9. Data analysis was done with Clampfit version 8 or 9 (Axon Instruments, Union City, Calif.), Excel 2000 (Microsoft, Seattle, Wash.), and GraphPad/Prism version 4.02 (Graphpad Software, San Diego, Calif.). Data are reported as mean±SEM. Statistical analyses were performed using two-tailed Student's t-test and one-way analysis of variance (ANOVA).
(§5) Single-barrel pipettes were pulled from borosilicate glass with an outer diameter (o.d.) and inner diameter (i.d.) of 1.5 mm and 0.86 mm, respectively (Sutter Instrument, Novato, Calif.). Pipette opening size of the single barrel was typically 2-3 μm. Double-barrel pipettes were pulled from borosilicate theta glass with an o.d. of 1.5 mm; pipette opening size was around 3-4 μm. The application pipette was usually placed within 10-15 μm of the cell soma.
(§6) In experiments in which AQA analogs were bath-applied, for each cell, four ACh baseline-evoked responses were recorded before bath application of the antagonist. ACh-evoked responses were then recorded for 13-22 min in the presence of the AQA analog. Each analog was bath-applied at a final concentration of 1 μm. In some septum experiments, dihydro-β-erythroidine (DHβE) was also bath-applied at a final concentration of 1 μm.
Stable ACh-evoked responses were obtained from hippocampal interneurons in fresh brain slices and then applied 1 μM tPyQB, tPy2PiB, or tkP3BzPB to the bath. […]

rat α4β2 nAChRs = target: T3, rat α4β2 nAChRs (Rattus norvegicus, UniProt P09483+P12390); assay: Voltage-clamp recording in Xenopus oocytes expressing rat α4β2 nAChRs; conditions: for recovery of responses to ACh alone after co-application: 5 min washout
T3 construct: expressed in transfected cells; host or cells: Xenopus laevis oocytes injected with subunit cRNAs
T3 sequence (P09483 31-630): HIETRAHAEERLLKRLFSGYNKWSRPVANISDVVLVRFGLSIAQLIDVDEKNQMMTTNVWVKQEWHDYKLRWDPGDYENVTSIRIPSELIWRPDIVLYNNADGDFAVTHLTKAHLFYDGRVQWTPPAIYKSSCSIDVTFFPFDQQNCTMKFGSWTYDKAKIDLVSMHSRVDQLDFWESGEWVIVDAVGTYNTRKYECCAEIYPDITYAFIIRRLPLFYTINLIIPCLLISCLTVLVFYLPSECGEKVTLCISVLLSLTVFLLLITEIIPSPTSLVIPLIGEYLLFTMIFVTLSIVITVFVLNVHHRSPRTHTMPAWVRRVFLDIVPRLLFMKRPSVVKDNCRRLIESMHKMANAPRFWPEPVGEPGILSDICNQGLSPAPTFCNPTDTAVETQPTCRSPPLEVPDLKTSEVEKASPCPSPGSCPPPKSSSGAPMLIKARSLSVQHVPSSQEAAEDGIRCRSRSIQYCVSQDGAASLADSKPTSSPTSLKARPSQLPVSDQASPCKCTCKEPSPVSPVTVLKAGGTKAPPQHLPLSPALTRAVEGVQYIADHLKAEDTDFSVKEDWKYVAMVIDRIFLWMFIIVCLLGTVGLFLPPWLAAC
T3 sequence (P12390 25-500): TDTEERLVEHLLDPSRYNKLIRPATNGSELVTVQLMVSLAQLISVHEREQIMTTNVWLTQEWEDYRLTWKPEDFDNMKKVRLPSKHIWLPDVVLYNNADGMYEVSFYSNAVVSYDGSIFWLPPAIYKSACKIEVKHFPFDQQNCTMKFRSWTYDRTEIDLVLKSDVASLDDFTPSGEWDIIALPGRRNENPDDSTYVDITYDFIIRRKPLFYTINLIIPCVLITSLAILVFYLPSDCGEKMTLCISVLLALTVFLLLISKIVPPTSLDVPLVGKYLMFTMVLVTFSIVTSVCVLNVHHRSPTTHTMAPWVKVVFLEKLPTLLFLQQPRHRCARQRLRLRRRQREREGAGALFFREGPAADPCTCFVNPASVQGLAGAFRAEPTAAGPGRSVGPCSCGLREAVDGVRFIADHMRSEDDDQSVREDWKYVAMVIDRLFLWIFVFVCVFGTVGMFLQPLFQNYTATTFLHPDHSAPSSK
Protocol: as §1, §2, §3

rat α7 nAChRs = target: T4, rat α7 nAChRs (Rattus norvegicus, UniProt Q05941); assay: Voltage-clamp recording in Xenopus oocytes expressing rat α7 nAChRs; conditions: for Imax of ACh concentration-response in the presence of antagonist: ACh alone Imax=1; for recovery of responses to ACh alone after co-application: 5 min washout; for effect of voltage on inhibition of α7 receptors: −40 or −80 mV, 60 μM ACh; for inhibition at 1 µM: 1 μM tPyQB
T4 construct: expressed in transfected cells; host or cells: Xenopus laevis oocytes injected with subunit cRNA
T4 sequence (Q05941 23-502): as the sequence (Q05941 23-502) above
Protocol: as §1, §2, §3

[2] = tested on: Type II cells in rat medial septum; assay: Patch-clamp recording of ACh-evoked responses of medial septal neurons, Type II cells
Protocol: as §4, §5, §6
Neurons in rat medial septum vary in their nAChR-mediated responses. Some neurons (Type I cells) have relatively fast transient ACh-evoked responses, while others (Type II cells) have slower ACh-evoked responses (Thinschmidt et al., 2005a).

[3] = tested on: Type I cells in rat medial septum; assay: Patch-clamp recording of ACh-evoked responses of medial septal neurons, Type I cells
Protocol: as §4
Single-barrel pipettes were pulled from borosilicate glass with an outer diameter (o.d.) and inner diameter (i.d.) of 1.5 mm and 0.86 mm, respectively (Sutter Instrument, Novato, Calif.). […]
In experiments in which AQA analogs were bath-applied, for each cell, four ACh baseline-evoked responses were recorded before bath application of the antagonist. ACh-evoked responses were then recorded for 13-22 min in the presence of the AQA analog. […]

[4] = 1 mM ACh+300 μM tkP3BzPB pressure co-application

## Cc1cccc[n+]1CCCC#Cc1cc(C#CCCC[n+]2ccccc2C)cc(C#CCCC[n+]2ccccc2C)c1 [tPy2PiB, 1,3,5,-tri-{5-[1-(2-picolinium)]-pent-1-yn-1-yl}benzene tribromide]
Rat α3β4 nAChRs
  IC50: 10 ± 1.4 µM
  recovery of responses to ACh alone after co-application: recovered fully
[1]
  reduction of ACh-evoked responses: no significant reduction
Rat α4β2 nAChRs
  IC50: 103 ± 25 µM
  recovery of responses to ACh alone after co-application: recovered fully
Rat α7 nAChRs; 3 μM tPy2PiB, holding potential −40 mV
  inhibition of net charge responses: no significant inhibition
Rat α7 nAChRs; 3 μM tPy2PiB, net charge
  Imax of ACh concentration-response in the presence of antagonist: 0.84±0.02
Rat α7 nAChRs
  recovery of responses to ACh alone after co-application: recovered fully
  effect of voltage on inhibition of α7 receptors: significant effect of voltage
Rat α7 nAChRs; read-out: IC50 values, α7
  IC50: 6.3 ± 0.6 µM
Rat α7 nAChRs; read-out: inhibition of net charge responses, 3 μM tPy2PiB, holding potential −80 mV
  inhibition at 3 µM: 43 ± 3%

## C(#Cc1cc(C#CCCC[n+]2cccc3ccccc32)cc(C#CCCC[n+]2cccc3ccccc32)c1)CCC[n+]1cccc2ccccc21 [tPyQB, 1,3,5-tri-[5-(1-quinolinum)-pent-1-yn-1-yl]-benzene tribromide]
Rat α3β4 nAChRs
  IC50: 1 ± 0.1 µM
  recovery of responses to ACh alone after co-application: recovered fully
[1]
  reduction of ACh-evoked responses: effectively reduced
Rat α4β2 nAChRs
  IC50: 4.1 ± 1 µM
  recovery of responses to ACh alone after co-application: recovered fully
Rat α7 nAChRs; 300 nM tPyQB, net charge
  Imax of ACh concentration-response in the presence of antagonist: 0.40±0.01
Rat α7 nAChRs; 1 μM
  inhibition of 60 μM ACh-evoked responses: completely inhibit
Rat α7 nAChRs; cells held at −40 mV
  inhibition at 1 µM: 83 ± 2%
Rat α7 nAChRs; −80 mV
  inhibition at 1 µM: 97.7 ± 0.1%
Rat α7 nAChRs
  recovery of responses to ACh alone after co-application: recovered fully
  effect of voltage on inhibition of α7 receptors: significant effect of voltage
Rat α7 nAChRs; read-out: IC50 values, α7
  IC50: 0.13 ± 0.02 µM

## CO[C@H]1CC=C2CCN3CCC4=C(CC(=O)OC4)[C@]23C1 [DHβE, dihydro-β-erythroidine, reference compound]
[2]; 1 μM DHβE bath-applied
  blockade of residual ACh-evoked responses following tkP3BzPB bath application: largely sensitive to DHβE blockade

## c1ccc(Cc2ccc[n+](CCCCCc3cc(CCCCC[n+]4cccc(Cc5ccccc5)c4)c(CCCCC[n+]4cccc(Cc5ccccc5)c4)cc3CCCCC[n+]3cccc(Cc4ccccc4)c3)c2)cc1 [tkP3BzPB, 1,2,4,5-tetra-{5-[1-(3-benzyl)pyridinium]pent-1-yl}benzenetetrabromide]
[2]; 1 μM bath-applied
  baseline response (peak amplitude) at the end of the application: 59±1%
  net-charge evoked response, of the baseline response, after bath application: 79±2%
[2]; [4]
  average baseline net charge response after co-application: 93±10%
  average baseline peak response after co-application: 86±5%
Rat α3β4 nAChRs
  IC50: 9.2 ± 1.2 µM
  recovery of responses to ACh alone after co-application: no significant residual inhibition
[3]; 1 μM bath-applied
  initial evoked response remaining (peak amplitude) after bath application: 12±0.6%
  net-charge evoked response after bath application: fully abolished
[3]; [4]
  average baseline net charge response after co-application: 68±9%
  average baseline peak response after co-application: 72±6%
[1]
  reduction of ACh-evoked responses: effectively reduced
[1]; 1 mM ACh pressure application
  baseline net charge response remaining after bath application: 0.4±0.7%
  baseline peak response remaining after bath application: 4±0.2%
Rat α4β2 nAChRs
  IC50: 48 ± 11 µM
  recovery of responses to ACh alone after co-application: no significant residual inhibition
Rat α7 nAChRs; 100 nM, typical co-application protocol
  inhibition of 60 μM ACh-evoked responses: virtually no inhibition
Rat α7 nAChRs; 3 μM for 20 s with or without 60 μM ACh, 5 minute washout
  use-dependence of persistent inhibition: not use-dependent
Rat α7 nAChRs
  recovery of responses to ACh alone after co-application: decreasing recovery with increasing tkP3BzPB concentrations
  effect of voltage on inhibition of α7 receptors: no significant difference
Rat α7 nAChRs; after 1 μM co-applied with 60 μM ACh
  recovery time constant: 26.6 ± 0.8 min
Rat α7 nAChRs; after 5 minutes wash following application at increasing concentrations, read-out: IC50 estimated for recovery data
  IC50: 1.9 ± 0.7 µM
Rat α7 nAChRs; after application of 3 μM alone, repeated applications of 60 μM ACh
  time constant of recovery: 76 ± 3 min
Rat α7 nAChRs; read-out: inhibition of the ACh-evoked responses
  inhibition at 0.1 µM: ~80%
Rat α7 nAChRs; simple co-application with 60 μM ACh, net charge, read-out: IC50 values, α7
  IC50: 1 ± 0.1 µM
